Reference: patent US10898419B2, “Compounds for promoting hair growth and/or inhibiting or delaying hair loss in humans, and compositions for such uses” (GIULIANI S.P.A., priority 2016, dated 2021)

How the values were obtained:
[1] = tested on: microdissected human scalp HFs; assay: Hair shaft elongation in HF organ culture; type: cell-based; settings: 500 μM, cultured microdissected HFs from two donors, compared to vehicle
Description: (§1) Then, in order to assess whether stimulation of OR2AT4 can influence human hair growth, microdissected HFs were treated with sandal pentanol at a concentration of 500 μM, as the agonist and a hair shaft elongation measurement was performed (see Philpott et al., 1990). In addition, a kinase assay was conducted in order to identify which signalling pathways are involved in the specific stimulation of OR2AT4 by sandal pentanol.
Human scalp samples were obtained after face-lifting procedure and used at the same day for microdissecting human anagen VI scalp HFs. […]
(§2) Phenirat was added 30 min before sandal pentanol. Hair shaft elongation was measured daily using an inverted binocular microscope (Philpott et al., 1990) and culture medium was replaced every second day. […]
To check whether the activation of OR2AT4 can influence the hair cycle of human HF, microdissected human HFs were specifically stimulated with the potential agonist, sandal pentanol. The effect of the sandal pentanol treatment was evaluated by measuring hair shaft elongation compared to vehicle.
HF elongation was measured in cultured microdissected HFs. […]

[2] = tested on: microdissected human scalp HFs; assay: Hair cycle score / staging (catagen induction) in HF organ culture; type: cell-based; settings: 500 μM (Phenirat 1:1), 6 days of culture, compared to vehicle
Description: (§3) HFs were treated with either the vehicle, sandal pentanol, Phenirat or a mixture of sandal pentanol and Phenirat. To analyse modifications of the hair cycle, Ki67/TUNEL were performed and used to evaluate hair cycle score and hair matrix keratinocytes proliferation and apoptosis.
Human scalp samples were obtained after face-lifting procedure and used at the same day for microdissecting human anagen VI scalp HFs. Microdissected human scalp HFs were cultured at 37° C. with 5% CO2 in a minimal media of William's E media (Gibco, Life technologies) supplemented with 2 mM of L-glutamine (Gibco), 10 ng/ml hydrocortisone (Sigma-Aldrich), 10 μg/ml insulin (Sigma-Aldrich) and 1% penicillin/streptomycin mix (Gibco) (WEM) as previously described (Philpott, 1990; Kloepper, 2010; Langan et al, 2015). […]
as §2
To investigate the specificity of the effect on hair growth of OR2AT4 stimulation by sandal pentanol, microdissected HFs were cultured with sandal pentanol and/or Phenirat, and hair cycle performed staging analysis as previously described (Kloepper, 2010; Langan et al, 2015). Hair cycle score was measured both in treated and vehicle HFs after 6 days of culture. […]

[3] = tested on: hair matrix keratinocytes; assay: Ki67/TUNEL staining of hair matrix keratinocytes in HF organ culture; type: cell-based, human; settings: 500 μM (Phenirat 1:1), 6 day-culture, compared to vehicle
Description: as §3
OCT embedded samples were sectioned (6 μm thickness) with a cryostat. Sections were fixed in 4% paraformaldehyde, pre-incubated with 10% of goat serum (for OR2AT4) or 5% goat serum+0.3% Tritton X-100 (for cleaved-caspase 3) and incubated with the corresponding primary antibody at 4° C. overnight ( 1/100 for OR2AT4 and 1/400 for cleaved-caspase 3). Secondary antibody incubation was performed at RT for 45 min. Counterstaining with DAPI (1 μg/mL) was performed to visualize nuclei. For TGFb2, samples were fixed in acetone and the endogenous peroxidases were blocked with 3% of H2O2. This step was followed by an avidin-biotin blocking step and a preincubation with TNB buffer (Tris HCl+NaCl+Casein). The corresponding primary antibody was incubated at 4° C. overnight ( 1/1000 for TGFb2). Secondary antibody incubation was performed at RT for 45 min before using the Tyramide signal amplification kit (Perkin Elmer). Counterstaining with DAPI was performed to visualize nuclei. To stain apoptotic and proliferating cells, we have used the apoptag kit (Merck Milipore) following manufacture's protocol followed by Ki67 staining. The primary antibody was incubated overnight (Ki67, 1/20) after the TdT-enzyme step. The secondary antibody was incubated for 45 min at RT after the fluorescent-labelled anti-Digoxigenin step of the apoptag kit. Counterstaining with DAPI was performed to visualize nuclei. Negative controls were performed by omitting the primary antibody. Images were taken using a Keyence fluorescence microscope (Osaka, Japan) maintaining a constant set exposure time throughout imaging for further analysis.
After 24 h of incubation, WEM medium was replaced and HFs were treated with the corresponding substances for 6 days following experimental conditions. HFs were treated either with vehicle (0.1% DMSO), sandal pentanol (500 μM), Phenirat (in a ratio 1:1 to the agonist), or a mixture sandal pentanol+Phenirat.
Staining intensity was evaluated in well-defined reference areas by quantitative (immuno-)histomorphometry, as previously described (Bertolini et al., 2014) using NIH IMAGE software (NIH, Bethesda, Md., USA).
With reference to the evidence of FIG. 4, to investigate whether sandal pentanol influences hair matrix keratinocytes proliferation and apoptosis, Ki67/TUNEL staining was performed. Proliferating (diagram of FIG. 4A) and apoptotic (diagram of FIG. 4B) hair matrix keratinocytes were counted in the hair matrix of treated and vehicle HFs. […]

TGFβ2 = TGFβ2 immunofluorescence in ORS keratinocytes of cultured HFs; type: cell-based, human; settings: 500 μM (Phenirat 1:1), 6 day-treatment, proximal ORS keratinocytes, compared to vehicle
Description: In addition, TGFβ2, a potent catagen inducer, was investigated with reference to the same above compounds.
OCT embedded samples were sectioned (6 μm thickness) with a cryostat. Sections were fixed in 4% paraformaldehyde, pre-incubated with 10% of goat serum (for OR2AT4) or 5% goat serum+0.3% Tritton X-100 (for cleaved-caspase 3) and incubated with the corresponding primary antibody at 4° C. overnight ( 1/100 for OR2AT4 and 1/400 for cleaved-caspase 3). Secondary antibody incubation was performed at RT for 45 min. Counterstaining with DAPI (1 μg/mL) was performed to visualize nuclei. For TGFb2, samples were fixed in acetone and the endogenous peroxidases were blocked with 3% of H2O2. This step was followed by an avidin-biotin blocking step and a preincubation with TNB buffer (Tris HCl+NaCl+Casein). […] Images were taken using a Keyence fluorescence microscope (Osaka, Japan) maintaining a constant set exposure time throughout imaging for further analysis. […]
Staining intensity was evaluated in well-defined reference areas by quantitative (immuno-)histomorphometry, as previously described (Bertolini et al., 2014) using NIH IMAGE software (NIH, Bethesda, Md., USA). […]
TGFβ2 expression was quantified using Image J. Mean±SEM, n=14-22 HFs from 2 patients, Kruskal-Wallis and Dunn's multiple comparisons test as post hoc test, *p<0.05, ***p<0.001, and Mann-Whitney test, ns. […]

[4] = tested on: apoptotic signalling pathway; assay: Kinase assay of signalling pathways after OR2AT4 stimulation; type: cell-based, human; settings: specific stimulation of OR2AT4 in microdissected HFs
Description: as §1

[5] = molecular target: T1, olfactory receptor OR2AT4 (Homo sapiens, UniProt A6NND4); settings: according to Busse et al.; cited from earlier work
T1 sequence (A6NND4 1-320): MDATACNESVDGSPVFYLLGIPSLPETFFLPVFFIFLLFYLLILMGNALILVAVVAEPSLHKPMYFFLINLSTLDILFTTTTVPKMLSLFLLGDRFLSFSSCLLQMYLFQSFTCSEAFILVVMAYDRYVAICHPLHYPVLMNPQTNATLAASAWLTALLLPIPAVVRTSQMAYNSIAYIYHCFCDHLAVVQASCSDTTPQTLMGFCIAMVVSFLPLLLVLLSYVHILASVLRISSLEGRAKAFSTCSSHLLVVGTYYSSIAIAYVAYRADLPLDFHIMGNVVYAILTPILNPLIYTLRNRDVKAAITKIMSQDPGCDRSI

[6] = tested on: cultured human keratinocytes; settings: Busse et al.; cited from earlier work
keratinocytes = settings: long-term stimulation, in vitro wound scratch assay, Busse et al.; cited from earlier work
[7] = tested on: human skin organ cultures; settings: Busse et al.; cited from earlier work

For CC1=CCC(CCC(C)C(C)O)C1(C)C (centres unmarked) [sandal pentanol, 3-methyl-5-(2,2,3-trimethylcyclopent-3-en-1-yl)pentan-2-ol], which hair shaft elongation [1] is on record?
Its hair shaft elongation is “stimulates hair shaft elongation”.

And the “catagen induction / anagen prolongation (hair cycle score)” value [2]?
The value was “delayed catagen induction”.

And the “hair matrix keratinocyte apoptosis (TUNEL)” value [3]?
The value was “significantly decreased”.

And the “hair matrix keratinocyte proliferation (Ki67)” value [3]?
The value was “did not change”.

And the “TGFβ2 expression at the protein level” value (TGFβ2)?
Its value is “significant decrease”.

And the “effect on apoptotic signalling pathway” value [4]?
Its value is “Inhibits Apoptotic Signalling Pathway”.

What about the “activity at olfactory receptor OR2AT4” value [5] of the same compound?
The value was “agonists”.

And the “Ca2+ signals” value [6]?
Its value is “induce Ca^2+ signals”.

What about the “cell proliferation, migration and regeneration of keratinocyte monolayers” value (keratinocytes) of the same compound?
The value was “positively affects”.

And the epidermal wound healing [7]?
Its epidermal wound healing is “enhances epidermal wound healing”.

With CC1=CC[C@@H](CC[C@@H](C)CO)C1(C)C (stereo in doubt) [brahmanol, 2-Methyl-4-(2,2,3-trimethyl-3-cyclopenten-1-yl)butanol] as the compound, how does the “activity at olfactory receptor OR2AT4” value [5] read?
Its value is “agonists”.

What about the “Ca2+ signals” value [6] of the same compound?
The value was “induce Ca^2+ signals”.

What does the source list for CC(C)C(=O)OCCOc1ccccc1 [Phenirat, phenoxyethyl isobutyrate, reference compound]?
catagen induction / anagen prolongation (hair cycle score) [2]: did not prolong anagen; hair matrix keratinocyte apoptosis (TUNEL) [3]: this effect is not obtained; hair matrix keratinocyte proliferation (Ki67) [3]: did not change; TGFβ2 expression at the protein level (TGFβ2): no change; activity at olfactory receptor OR2AT4 [5]: specific antagonist
